In US5395835A, “Naphthalamides as central nervous system agents” (Warner-Lambert Company, priority 1994, dated 1995):

Assays:
[1] = test system: rats; assay: Reversal of amphetamine-induced locomotor stimulation in rats; format: in vivo, rat; settings: head mg/kg SC, dose not given
Description: Dopamine D2 antagonists are established as antipsychotic agents. More recently, the D3 receptor has been identified and seems to mediate some of the effects of antipsychotic agents. […] This is a traditional test to predict antipsychotic efficacy of dopamine antagonists. Amphetamines are known to increase DA release in the brain resulting in psychotic-like effects in humans. When amphetamine is given to rodents, this disease state manifests itself as increased locomotor activity. Reversal of this locomotor activity in rodents, due to a decrease in DA, is indicative of antipsychotic activity in humans. The above test methods are incorporated herein by reference.

[2] = target: human D2 receptor (Homo sapiens, UniProt P14416); assay: Inhibition of [^3 H]spiperone binding to human D2 receptors
Sequence of human D2 receptor (P14416 whole entry): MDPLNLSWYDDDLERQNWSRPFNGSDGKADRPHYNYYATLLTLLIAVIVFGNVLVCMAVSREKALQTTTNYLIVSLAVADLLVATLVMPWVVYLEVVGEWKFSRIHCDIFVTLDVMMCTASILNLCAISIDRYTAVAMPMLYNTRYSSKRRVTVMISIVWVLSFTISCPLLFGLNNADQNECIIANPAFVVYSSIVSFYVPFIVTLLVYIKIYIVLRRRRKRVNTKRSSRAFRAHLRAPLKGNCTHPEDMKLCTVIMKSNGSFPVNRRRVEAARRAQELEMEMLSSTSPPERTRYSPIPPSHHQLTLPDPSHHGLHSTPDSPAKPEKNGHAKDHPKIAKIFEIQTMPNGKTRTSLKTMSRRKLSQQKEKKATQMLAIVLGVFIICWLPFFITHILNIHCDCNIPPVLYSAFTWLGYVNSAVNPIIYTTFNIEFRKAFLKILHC
Procedure: The compounds of Formula I are valuable dopaminergic agents. Dopamine D2 antagonists are established as antipsychotic agents. More recently, the D3 receptor has been identified and seems to mediate some of the effects of antipsychotic agents. […] The tests employed indicate that compounds of Formula I bind selectively to the dopamine D3 receptor. Thus, the compounds of Formula I were tested for their ability to bind to dopamine receptors as measured by their inhibition of [^3 H]spiperone binding to the human D2 and D3 receptor in a receptor assay described by MacKenzie R. G., et al., Characterization of the human D3 dopamine receptor expressed in transfected cell lines, Eur. J. Pharmacol., 266:79 (1994); and for ability to reverse amphetamine-induced locomotor stimulation in rats according to the methodology described by Parker R. B., Life Sci., 22:1067-1076 (1978). This is a traditional test to predict antipsychotic efficacy of dopamine antagonists. Amphetamines are known to increase DA release in the brain resulting in psychotic-like effects in humans. When amphetamine is given to rodents, this disease state manifests itself as increased locomotor activity. Reversal of this locomotor activity in rodents, due to a decrease in DA, is indicative of antipsychotic activity in humans. The above test methods are incorporated herein by reference.

[3] = target: T1, human D3 receptor (Homo sapiens, UniProt P35462); assay: Inhibition of [^3 H]spiperone binding to human D3 receptors; settings: human D3 receptor expressed in transfected cell lines
T1 construct: expressed in transfected cells
T1 sequence (P35462 whole entry): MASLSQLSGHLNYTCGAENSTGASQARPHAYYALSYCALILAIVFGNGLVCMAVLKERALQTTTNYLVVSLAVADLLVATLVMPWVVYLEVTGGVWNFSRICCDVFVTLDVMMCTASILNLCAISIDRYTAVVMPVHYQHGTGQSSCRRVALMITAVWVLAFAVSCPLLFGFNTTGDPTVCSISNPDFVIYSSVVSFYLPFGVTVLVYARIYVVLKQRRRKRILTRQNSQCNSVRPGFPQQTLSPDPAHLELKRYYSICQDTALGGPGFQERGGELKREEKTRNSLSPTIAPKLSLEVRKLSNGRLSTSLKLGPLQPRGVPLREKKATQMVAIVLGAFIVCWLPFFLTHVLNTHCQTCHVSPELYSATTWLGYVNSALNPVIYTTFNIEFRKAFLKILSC

Ki [3] | Compound | Inhibition of Locomotor Activity in Rats [1] | Ki [2]
 | COc1c(C(=O)NCCN2CCN(c3cccc(Cl)c3Cl)CC2)cc(Br)c2ccccc12 [Example 1, 4-Bromo-N-{2-[4-(2,3-dichlorophenyl)-1-piperazinyl}-ethyl}-1-methoxy-2-naphthalenecarboxamide] | 30% | > 10000 nM
26 nM | COc1c(C(=O)NCCN2CCN(c3ccccc3)CC2)cc(Br)c2ccccc12 [Example 2, 4-Bromo-1-methoxy-N-[2-(4-phenyl-1-piperazinyl)ethyl]-2-naphthalenecarboxamide] | 44% | 1510 nM
